Test results from patent US20240425491A1, “HETEROARYL COMPOUNDS USEFUL IN THE TREATMENT OF COGNITIVE DISORDERS” (University College Cardiff Consultants Limited, priority 2021, published 2024).

Legend:
[1] = tested on: mouse hippocampal brain slices (LTP suppressed by etomidate); assay: Electrophysiology in hippocampal slices - long term potentiation assay
[2] = molecular target: T1, human recombinant GABAAR containing α5β3γ2 subunits (benzodiazepine site) (Homo sapiens, UniProt P18507+P31644); assay: In vitro radioligand binding assay (α5-GABAAR Ki); conditions: inhibition of [3H]Ro15-1788 binding, membranes of L(tk−) cells expressing human α5β3γ2; read-out: α5-GABAAR Ki
T1 construct: expressed in transfected cells; host or cells: mouse L(tk−) cells, dexamethasone-inducible vector pMSGneo
T1 sequence (P31644 32-462): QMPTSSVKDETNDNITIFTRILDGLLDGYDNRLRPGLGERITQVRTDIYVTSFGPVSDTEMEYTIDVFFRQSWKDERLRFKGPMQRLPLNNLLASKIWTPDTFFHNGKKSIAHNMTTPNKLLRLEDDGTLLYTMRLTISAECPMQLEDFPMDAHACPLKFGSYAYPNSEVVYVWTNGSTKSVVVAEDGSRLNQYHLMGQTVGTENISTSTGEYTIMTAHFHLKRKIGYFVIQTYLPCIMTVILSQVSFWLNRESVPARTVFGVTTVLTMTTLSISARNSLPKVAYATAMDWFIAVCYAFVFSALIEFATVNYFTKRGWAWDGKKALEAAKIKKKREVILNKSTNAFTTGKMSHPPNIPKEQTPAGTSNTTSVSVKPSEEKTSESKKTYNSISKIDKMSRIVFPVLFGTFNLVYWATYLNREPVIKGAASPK
T1 sequence (P28472 26-473 partner): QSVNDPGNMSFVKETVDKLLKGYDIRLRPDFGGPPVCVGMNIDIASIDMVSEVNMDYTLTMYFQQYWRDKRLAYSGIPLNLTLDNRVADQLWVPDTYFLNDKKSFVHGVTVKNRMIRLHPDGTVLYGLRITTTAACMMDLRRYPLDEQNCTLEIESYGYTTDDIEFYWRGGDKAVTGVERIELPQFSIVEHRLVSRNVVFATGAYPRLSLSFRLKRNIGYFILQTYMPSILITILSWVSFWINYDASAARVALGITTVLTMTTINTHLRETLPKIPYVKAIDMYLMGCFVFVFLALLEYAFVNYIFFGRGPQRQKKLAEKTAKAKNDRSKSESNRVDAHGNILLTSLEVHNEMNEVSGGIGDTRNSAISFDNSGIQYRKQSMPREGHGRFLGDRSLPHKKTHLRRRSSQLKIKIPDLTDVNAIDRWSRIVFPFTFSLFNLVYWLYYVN
T1 sequence (P18507 40-475): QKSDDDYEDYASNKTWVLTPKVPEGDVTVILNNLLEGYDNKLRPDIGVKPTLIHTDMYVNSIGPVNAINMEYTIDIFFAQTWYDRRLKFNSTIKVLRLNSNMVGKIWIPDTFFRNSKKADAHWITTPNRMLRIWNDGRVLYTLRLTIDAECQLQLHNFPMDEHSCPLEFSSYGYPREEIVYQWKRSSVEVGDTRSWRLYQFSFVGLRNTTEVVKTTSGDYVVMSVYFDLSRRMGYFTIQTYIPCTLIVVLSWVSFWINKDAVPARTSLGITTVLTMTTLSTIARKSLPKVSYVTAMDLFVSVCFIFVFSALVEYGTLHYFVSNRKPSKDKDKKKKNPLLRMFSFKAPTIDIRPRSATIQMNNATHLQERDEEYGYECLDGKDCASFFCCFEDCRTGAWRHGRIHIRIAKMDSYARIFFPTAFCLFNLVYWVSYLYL
Summary of the method: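 Displacement of 4 nM [^3H]flumazenil from the benzodiazepine site, read by filtration and scintillation, gave IC50, converted to Ki (Cheng-Prusoff, saturation-derived Kd). Receptor: human α5β3γ2 membranes from L(tk^−) cells, 50 μg protein/well; 1 h, 4° C; TP003 1 μM defined nonspecific binding.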

[3] = molecular target: T2, human α5β3γ2 GABAARs in mouse L(tk−) cells (Homo sapiens, UniProt P18507+P31644); assay: In vitro electrophysiological recording assay (α5-GABAAR relative efficacy), QPatch; assay type: cell-based; conditions: GABA EC10-20
T2 construct: expressed in transfected cells; host or cells: mouse L(tk−) cells, dexamethasone-inducible vector pMSGneo
T2 sequence (P31644 32-462): as the sequence (P31644 32-462) above
T2 sequence (P28472 26-473 partner): as the sequence (P28472 26-473 partner) above
T2 sequence (P18507 40-475): as the sequence (P18507 40-475) above
Summary of the method: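 Whole-cell QPatch recordings at 20-22° C, −65 mV holding, in dexamethasone-induced (1 μM, 24 h) L(tk−) cells. Compound pre-applied ≥1 min, then co-applied with GABA EC10-20; percentage change in leak-corrected peak current, taken at ≥100× Ki, normalised to DMCM efficacy; 0.1% DMSO final.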

[4] = molecular target: T3, human α5β3γ2L GABAA receptors in HEK293 cells (Homo sapiens, UniProt P18507+P31644); assay: In vitro electrophysiological recording assay (α5-GABAAR relative efficacy), SyncroPatch; assay type: cell-based; conditions: Conc 0.1 μM; GABA EC10-20
T3 construct: expressed in transfected cells
T3 sequence (P31644 32-462): as the sequence (P31644 32-462) above
T3 sequence (P28472 26-473 partner): as the sequence (P28472 26-473 partner) above
T3 sequence (P18507 40-475): as the sequence (P18507 40-475) above
Summary of the method: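 HEK293 cells stably expressing the receptor, automated whole-cell patch clamp at −80 mV, room temperature (20-22° C). Compound pre-incubated 1-2 min, then co-applied with GABA EC10-20; % change in peak current vs GABA alone (leak-subtracted). Tested generally at ≥100× Ki and normalised to DMCM efficacy as relative efficacy.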

CCOC(=O)c1cncn1[C@H](C)c1ccccc1 [etomidate, reference compound]
magnitude of LTP (fEPSP slope as % of control fEPSPs prior to 4-TBS vs time) ([1]; etomidate 3 μM alone, n=17, FIG. 2A): reduced | fEPSP slope at 50-60 min post-delivery of the 4-TBS ([1]; etomidate alone compared to control, FIG. 2B): significantly reduced fEPSP slope

COc1nc(-c2cnc(O)c(C(F)(F)F)c2)ccc1NC(=O)c1c(-c2ccccc2)noc1C [Example 107, N-(6′-Hydroxy-6-methoxy-5′-(trifluoromethyl)-[2,3′-bipyridin]-5-yl)-5-methyl-3-phenylisoxazole-4-carboxamide]
Ki [2]: 13.5 nM | α5-GABAAR Relative Efficacy (to DMCM), Qpatch ([3]; Conc 3 μM): −0.66 | α5-GABAAR Relative Efficacy (to DMCM), SyncroPatch [4]: −0.47

COc1nc(-c2cnc3n2CCN(C)C3)ccc1NC(=O)c1c(-c2ccccc2)noc1C [Example 137, N-(2-Methoxy-6-(7-methyl-5,6,7,8-tetrahydroimidazol[1,2-a]pyrazin-3-yl)pyridin-3-yl)-5-methyl-3-phenylisoxazole-4-carboxamide]
Ki [2]: 3.8 nM | α5-GABAAR Relative Efficacy (to DMCM), Qpatch ([3]; Conc 1 μM): −0.80 | α5-GABAAR Relative Efficacy (to DMCM), SyncroPatch [4]: −0.69

COc1nc(-c2cncc(OC(F)F)c2)ccc1NC(=O)c1c(-c2ccccc2)noc1C [Example 87, N-(5′-(Difluoromethoxy)-6-methoxy-[2,3′-bipyridin]-5-yl)-5-methyl-3-phenylisoxazole-4-carboxamide]
Ki [2]: 5 nM | α5-GABAAR Relative Efficacy (to DMCM), Qpatch ([3]; Conc 1 μM): −0.71 | α5-GABAAR Relative Efficacy (to DMCM), SyncroPatch [4]: −0.44

COc1nc(-c2cnc3n2CCN(C(C)=O)C3)ccc1NC(=O)c1c(-c2ccccc2)noc1C [Example 143, N-(6-(7-Acetyl-5,6,7,8-tetrahydroimidazo[1,2-a]pyrazin-3-yl)-2-methoxypyridin-3-yl)-5-methyl-3-phenylisoxazole-4-carboxamide]
Ki [2]: 0.4 nM | α5-GABAAR Relative Efficacy (to DMCM), Qpatch ([3]; Conc 0.1 μM): −0.80 | α5-GABAAR Relative Efficacy (to DMCM), SyncroPatch [4]: −0.72
